Experiments:
[1] = biological target: Acetylcholinesterase (Electrophorus electricus) (UniProt O42275); experiment: Inhibition of Electrophorus electricus AChE at 10 uM using acetylthiocholine iodide as substrate incubated for 15 mins by Ellman's method relative to control
[2] = biological target: butyrylcholinesterase (BuChE) (Rattus norvegicus, UniProt Q9JKC1); experiment: Inhibition of rat serum BuChE at 10 uM using butyrylthiocholine iodide as substrate incubated for 15 mins by Ellman's method relative to control; type: cell-free; conditions: probe butyrylthiocholine iodide
[3] = biological target: T1, MAO-A (Homo sapiens, UniProt P21397); experiment: Inhibition of recombinant human MAOA at 10 uM using kynuramine as substrate preincubated for 30 mins followed by substrate addition and measured after 30 mins by fluorescence assay relative to control; conditions: probe kynuramine, time 60 min
T1 sequence (P21397 whole entry): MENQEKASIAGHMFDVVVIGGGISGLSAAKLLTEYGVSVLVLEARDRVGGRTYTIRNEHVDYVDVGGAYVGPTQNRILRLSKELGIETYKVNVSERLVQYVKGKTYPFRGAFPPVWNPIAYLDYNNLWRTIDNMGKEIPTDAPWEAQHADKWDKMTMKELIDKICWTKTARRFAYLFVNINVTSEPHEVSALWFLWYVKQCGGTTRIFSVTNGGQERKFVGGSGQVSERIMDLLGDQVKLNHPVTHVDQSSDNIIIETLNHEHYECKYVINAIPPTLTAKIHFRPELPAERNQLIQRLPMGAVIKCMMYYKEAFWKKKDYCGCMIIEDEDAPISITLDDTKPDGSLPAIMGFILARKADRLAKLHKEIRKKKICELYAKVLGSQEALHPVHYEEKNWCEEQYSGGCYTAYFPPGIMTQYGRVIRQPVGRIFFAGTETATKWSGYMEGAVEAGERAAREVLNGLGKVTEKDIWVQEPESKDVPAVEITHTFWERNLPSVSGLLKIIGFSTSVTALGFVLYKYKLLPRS

[4] = biological target: T2, Amine oxidase [flavin-containing] B (Homo sapiens, UniProt P27338); experiment: Inhibition of recombinant human MAOB at 10 uM using kynuramine as substrate preincubated for 30 mins followed by substrate addition and measured after 30 mins by fluorescence assay relative to control; conditions: 0.5 h
T2 sequence (P27338 whole entry): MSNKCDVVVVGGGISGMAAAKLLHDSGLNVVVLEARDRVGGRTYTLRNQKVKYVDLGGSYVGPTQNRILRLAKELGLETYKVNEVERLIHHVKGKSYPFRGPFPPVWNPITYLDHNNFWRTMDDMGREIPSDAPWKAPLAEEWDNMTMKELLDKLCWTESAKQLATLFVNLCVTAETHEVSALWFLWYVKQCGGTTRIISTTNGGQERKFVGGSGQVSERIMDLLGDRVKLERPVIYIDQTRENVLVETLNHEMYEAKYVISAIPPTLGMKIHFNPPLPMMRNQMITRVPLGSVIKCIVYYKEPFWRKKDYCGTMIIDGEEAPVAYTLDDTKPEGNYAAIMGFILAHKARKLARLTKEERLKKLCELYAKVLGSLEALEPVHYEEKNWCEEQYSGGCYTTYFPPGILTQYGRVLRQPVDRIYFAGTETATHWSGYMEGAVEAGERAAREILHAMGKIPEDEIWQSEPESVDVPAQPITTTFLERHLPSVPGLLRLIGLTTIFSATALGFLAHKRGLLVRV

[5] = Antioxidant activity assessed as trolox equivalent of AAPH radical scavenging activity measured every min for 90 mins by ORAC-FL assay; type: functional
[6] = biological target: Acetylcholinesterase (Electrophorus electricus, UniProt O42275); experiment: Inhibition of Electrophorus electricus AChE using acetylthiocholine iodide as substrate incubated for 15 mins by Ellman's method
[7] = biological target: Acetylcholinesterase (Homo sapiens, UniProt P22303); experiment: Inhibition of human AChE using acetylthiocholine iodide as substrate incubated for 15 mins by Ellman's method
[8] = biological target: Amyloid-beta precursor protein (Homo sapiens) (UniProt P05067); experiment: Inhibition of amyloid beta (1 to 42) (unknown origin) self aggregation at 25 uM after 24 hrs by thioflavin-T fluorescence method relative to control
[9] = tested on: Plasma; experiment: Antiplatelet activity in rat platelet-rich plasma assessed as inhibition of ADP-induced platelet aggregation at 33 uM preincubated for 30 mins followed by ADP addition measured within 5 mins by aggregometry relative to control; type: functional; conditions: time 30-35 min
[10] = Inhibition of Cu2+-induced amyloid beta (1 to 42 residues) aggregation at 25 uM after 24 hrs by thioflavin T-based fluorescence assay relative to control

butyrylcholinesterase (BuChE), sequence (Q9JKC1 whole entry): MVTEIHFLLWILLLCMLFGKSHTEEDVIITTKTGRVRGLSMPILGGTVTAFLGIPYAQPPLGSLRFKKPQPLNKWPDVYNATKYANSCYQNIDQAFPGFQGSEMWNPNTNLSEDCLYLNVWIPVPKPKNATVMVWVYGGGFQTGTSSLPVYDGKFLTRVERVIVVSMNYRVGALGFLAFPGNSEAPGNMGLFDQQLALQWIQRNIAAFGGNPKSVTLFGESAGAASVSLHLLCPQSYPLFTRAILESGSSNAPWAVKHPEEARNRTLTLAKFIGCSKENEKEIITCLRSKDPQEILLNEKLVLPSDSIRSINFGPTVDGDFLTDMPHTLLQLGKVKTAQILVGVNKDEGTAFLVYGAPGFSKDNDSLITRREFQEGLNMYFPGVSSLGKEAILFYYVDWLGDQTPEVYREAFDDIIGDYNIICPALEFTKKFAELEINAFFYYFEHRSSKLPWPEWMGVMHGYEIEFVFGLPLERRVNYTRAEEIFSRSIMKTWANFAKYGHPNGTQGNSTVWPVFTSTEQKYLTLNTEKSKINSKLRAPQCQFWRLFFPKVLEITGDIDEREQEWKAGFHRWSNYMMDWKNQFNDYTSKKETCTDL
Acetylcholinesterase (Electrophorus electricus), sequence (O42275 24-633 limits assumed): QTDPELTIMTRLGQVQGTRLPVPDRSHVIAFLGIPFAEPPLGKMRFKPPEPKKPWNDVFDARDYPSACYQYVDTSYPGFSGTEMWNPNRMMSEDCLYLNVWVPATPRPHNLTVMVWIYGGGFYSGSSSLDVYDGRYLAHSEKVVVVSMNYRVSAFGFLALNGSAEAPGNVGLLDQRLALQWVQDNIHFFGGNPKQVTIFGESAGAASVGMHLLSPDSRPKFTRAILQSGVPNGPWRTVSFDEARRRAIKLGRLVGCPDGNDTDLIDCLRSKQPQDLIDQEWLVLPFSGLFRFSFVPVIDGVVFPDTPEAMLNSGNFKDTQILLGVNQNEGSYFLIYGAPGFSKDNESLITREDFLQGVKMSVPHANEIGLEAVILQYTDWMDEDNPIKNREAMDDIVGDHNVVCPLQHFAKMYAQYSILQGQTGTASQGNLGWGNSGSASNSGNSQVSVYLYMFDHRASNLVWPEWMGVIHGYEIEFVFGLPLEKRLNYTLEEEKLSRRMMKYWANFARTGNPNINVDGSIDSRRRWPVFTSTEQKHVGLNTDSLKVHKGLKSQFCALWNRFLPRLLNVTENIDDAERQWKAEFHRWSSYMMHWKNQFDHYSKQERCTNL
Acetylcholinesterase (Electrophorus electricus, UniProt O42275), sequence (O42275 whole entry): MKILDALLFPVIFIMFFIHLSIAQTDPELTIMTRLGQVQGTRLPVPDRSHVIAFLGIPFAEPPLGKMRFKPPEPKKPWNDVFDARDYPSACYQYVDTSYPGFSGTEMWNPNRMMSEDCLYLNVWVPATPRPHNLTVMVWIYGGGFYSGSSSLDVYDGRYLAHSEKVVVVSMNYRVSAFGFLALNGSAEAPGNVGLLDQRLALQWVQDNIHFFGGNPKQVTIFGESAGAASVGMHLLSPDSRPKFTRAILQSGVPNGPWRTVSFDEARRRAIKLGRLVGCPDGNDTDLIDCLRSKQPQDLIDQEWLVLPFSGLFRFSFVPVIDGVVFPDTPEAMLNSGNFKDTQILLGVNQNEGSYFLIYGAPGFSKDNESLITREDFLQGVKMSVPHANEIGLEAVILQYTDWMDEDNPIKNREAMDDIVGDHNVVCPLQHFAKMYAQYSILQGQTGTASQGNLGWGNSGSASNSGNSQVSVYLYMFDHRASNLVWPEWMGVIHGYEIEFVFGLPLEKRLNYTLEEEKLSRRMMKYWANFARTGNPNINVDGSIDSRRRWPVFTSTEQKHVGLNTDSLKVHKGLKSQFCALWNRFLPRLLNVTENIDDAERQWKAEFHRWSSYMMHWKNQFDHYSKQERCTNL
Amyloid-beta precursor protein (Homo sapiens), sequence (P05067 whole entry): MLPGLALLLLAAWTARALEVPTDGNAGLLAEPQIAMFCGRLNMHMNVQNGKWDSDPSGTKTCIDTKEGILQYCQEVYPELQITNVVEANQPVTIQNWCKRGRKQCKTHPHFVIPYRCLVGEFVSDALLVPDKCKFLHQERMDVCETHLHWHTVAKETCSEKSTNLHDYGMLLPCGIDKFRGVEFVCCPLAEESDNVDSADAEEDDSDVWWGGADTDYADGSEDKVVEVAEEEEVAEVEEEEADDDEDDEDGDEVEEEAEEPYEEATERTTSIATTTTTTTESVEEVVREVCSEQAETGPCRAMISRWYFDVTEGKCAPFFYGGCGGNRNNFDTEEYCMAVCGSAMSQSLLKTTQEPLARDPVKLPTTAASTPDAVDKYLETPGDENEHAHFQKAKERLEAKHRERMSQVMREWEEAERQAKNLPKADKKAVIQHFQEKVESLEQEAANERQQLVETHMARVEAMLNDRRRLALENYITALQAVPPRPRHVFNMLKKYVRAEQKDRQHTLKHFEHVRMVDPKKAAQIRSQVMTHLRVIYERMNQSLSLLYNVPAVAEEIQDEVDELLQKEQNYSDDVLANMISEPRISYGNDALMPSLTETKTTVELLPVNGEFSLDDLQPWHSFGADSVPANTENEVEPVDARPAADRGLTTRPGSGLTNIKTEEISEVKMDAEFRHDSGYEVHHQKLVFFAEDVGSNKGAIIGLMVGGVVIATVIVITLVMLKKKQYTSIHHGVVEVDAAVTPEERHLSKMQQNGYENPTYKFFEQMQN
Acetylcholinesterase (Homo sapiens, UniProt P22303), sequence (P22303 whole entry): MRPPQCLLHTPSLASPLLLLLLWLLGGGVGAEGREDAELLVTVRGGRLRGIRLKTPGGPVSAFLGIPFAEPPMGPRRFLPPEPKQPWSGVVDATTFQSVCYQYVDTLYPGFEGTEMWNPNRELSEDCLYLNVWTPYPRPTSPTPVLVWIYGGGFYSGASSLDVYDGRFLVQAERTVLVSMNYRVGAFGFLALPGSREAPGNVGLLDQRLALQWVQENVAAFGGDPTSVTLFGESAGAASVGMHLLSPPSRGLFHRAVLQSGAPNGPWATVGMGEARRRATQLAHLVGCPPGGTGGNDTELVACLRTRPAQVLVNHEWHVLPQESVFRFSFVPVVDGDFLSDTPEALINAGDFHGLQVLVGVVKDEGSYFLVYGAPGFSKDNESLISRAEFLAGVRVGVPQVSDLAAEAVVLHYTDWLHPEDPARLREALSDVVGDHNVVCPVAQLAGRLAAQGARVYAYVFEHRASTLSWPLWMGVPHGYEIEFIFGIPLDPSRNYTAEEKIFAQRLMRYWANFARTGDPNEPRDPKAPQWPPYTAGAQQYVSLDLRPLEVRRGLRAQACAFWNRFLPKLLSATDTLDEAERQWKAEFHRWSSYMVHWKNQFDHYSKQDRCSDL

SMILES	inhibition [1] [%]	inhibition at […], 10 µM [2] [%]	inhibition at 0.5 h, 10 µM [3] [%]	inhibition at 10 µM [4] [%]	Activity [5] [equiv]	IC50 [6] [nM]	IC50 [7] [nM]	inhibition [8] [%]	inhibition at 33 µM [9] [%]	inhibition [10] [%]
COc1cc2c(cc1OC)/C(=C\c1cccc(O)c1N1CCCCC1)OC2=O	42.8	16.4	< 5	24.2	2.58					
COc1cc2c(cc1OC)/C(=C\c1ccc(N3CCCCC3)c(O)c1)OC2=O		26.2	49.1	16.1	1.94	8.83	12	22.5	< 5	
COc1cc2c(cc1OC)/C(=C/c1ccc(N3CCOCC3)c(O)c1)OC2=O		< 5	5.3	50.2	1.77	9680		26.7		
COc1cc2c(cc1OC)C(Cc1ccc(N3CCOCC3)c(O)c1)OC2=O (stereo not drawn)		< 5	8.7	34.7	2.42	8260		29.5		9.5
COc1cc2c(cc1OC)/C(=C\c1cccc(O)c1N1CCCC1)OC2=O		49.6	< 5	12.5	2.46	19500				
COc1cc2c(cc1OC)/C(=C\c1ccc(N3CCOCC3)c(O)c1)OC2=O		5.7	18.7	13	1.76	2430		24.9		
COc1cc2c(cc1OC)/C(=C/c1ccc(N3CCCCC3)c(O)c1)OC2=O		< 5	6.1	< 5	1.46	66	50	24.6	15.4	
CCN(CC)c1ccc(/C=C2\OC(=O)c3cc(OC)c(OC)cc32)cc1O		< 5	< 5	39.4	2.7	72		28.6	12.4	
COc1cc2c(cc1OC)/C(=C/c1cccc(O)c1N1CCCC1)OC2=O		8.8	< 5	10.3	2.18	8860				
CCN(CC)c1c(O)cccc1/C=C1\OC(=O)c2cc(OC)c(OC)cc21	38	< 5	< 5	44.9	2.87					
COc1cc2c(cc1OC)/C(=C\c1ccc(N3CCCC3)c(O)c1)OC2=O		16.5	32	27.8	2.82	660		30.6	9.8	
CCN(CC)c1c(O)cccc1/C=C1/OC(=O)c2cc(OC)c(OC)cc21	46.9	31.4	< 5	44.6	2.53					
COc1cc2c(cc1OC)/C(=C/c1cccc(O)c1N1CCCCC1)OC2=O	41.1	6.7	< 5	20.3	2.08					
COc1cc2c(cc1OC)C(Cc1ccc(N3CCCCC3)c(O)c1)OC2=O (stereo not drawn)		10.3	14.8	8.6	2.42	33		28.9	< 5	12.8
COc1cc2c(cc1OC)C(Cc1cccc(O)c1N1CCCC1)OC2=O (stereo not drawn)	19.4	7.1	10.5	11.3	1.86					
CC(=O)Oc1ccccc1C(=O)O [ASPIRIN]									12.4	

SMILES	inhibition [1] [%]	inhibition at […], 10 µM [2] [%]	inhibition at 0.5 h, 10 µM [3] [%]	inhibition at 10 µM [4] [%]	Activity [5] [equiv]	IC50 [6] [nM]	IC50 [7] [nM]	inhibition [8] [%]	inhibition at 33 µM [9] [%]	inhibition [10] [%]
CCN(CC)c1ccc(/C=C2/OC(=O)c3cc(OC)c(OC)cc32)cc1O		5.7	48	49	4.48	26		26.1	< 5	
COc1cc2c(cc1OC)C(Cc1cccc(O)c1N1CCN(C)CC1)OC2=O (stereo not drawn)	14	< 5	< 5	< 5	2.13					
COc1cc2c(cc1OC)C(Cc1ccc(N3CCN(C)CC3)c(O)c1)OC2=O (stereo not drawn)	42.4	< 5	5.6	17	2.09					
COc1cc2c(cc1OC)C(Cc1cccc(O)c1N1CCCCC1)OC2=O (stereo not drawn)	12.6	< 5	< 5	15.6	1.44					
CCN(CC)c1ccc(CC2OC(=O)c3cc(OC)c(OC)cc32)cc1O (stereo not drawn)		< 5	< 5	< 5	2.14	2210		30.1	< 5	14.3
COc1cc2c(cc1OC)/C(=C/c1cccc(O)c1N1CCOCC1)OC2=O	15.1	< 5	6.6	27.9	1.48					
COc1cc2c(cc1OC)/C(=C/c1ccc(N3CCCC3)c(O)c1)OC2=O		9.4	5.1	28.3	4.1	31		23	< 5	
COc1cc2c(cc1OC)C(Cc1cccc(O)c1)OC2=O (stereo not drawn)	14.4	< 5	7.9	6.2	0.95					
COc1cc2c(cc1OC)/C(=C\c1cccc(O)c1N1CCOCC1)OC2=O	40.8	11.3	< 5	10.1	2.06					
CCN(CC)c1c(O)cccc1CC1OC(=O)c2cc(OC)c(OC)cc21 (stereo not drawn)	16.3	12.5	< 5	< 5	2.78					
COc1cc2c(cc1OC)/C(=C\c1ccc(N3CCN(C)CC3)c(O)c1)OC2=O		5.5	5	31.4	2.36	2630				
COc1cc2c(cc1OC)/C(=C/c1cccc(O)c1N1CCN(C)CC1)OC2=O	22.3	< 5	< 5	29.5	2.09					
COc1cc2c(cc1OC)/C(=C\c1cccc(O)c1N1CCN(C)CC1)OC2=O		5.9	10	13.2	1.38	12400				
COc1cc2c(cc1OC)C(Cc1cccc(O)c1N1CCOCC1)OC2=O (stereo not drawn)	11	< 5	< 5	19.1	2.28					
COc1cc2c(cc1OC)C(Cc1ccc(N3CCCC3)c(O)c1)OC2=O (stereo not drawn)		19.8	< 5	14.6	2.54	960		31.1	< 5	18.5
